# Test results: US5196446A (priority 1991, dated 1993)
# Legend:
# EGF receptor [1] = target: T1, EGF receptor (Homo sapiens, UniProt P00533); settings: read-out: Km for ATP in autophosphorylation; 15° C.; 10-s assay
# Method: ATP and EGF Dependence of Autophosphorylation
# With use of the 10-s assay protocol, the EGF concentration dependence of EGFRK autophosphorylation is determined.
# [2] = target: T2, EGF receptor tyrosine kinase (Homo sapiens, UniProt P00533); format: biochemical; settings: for IC50: read-out: IC50 (concentration of inhibitor required to inhibit 50% of polyGAT phosphorylation)
# T2 construct: WGA-purified EGF receptor from A431 cells; endogenous in cells; host or cells: A431 cells (solubilized, receptor enriched on WGA-agarose)
# EGF receptor [3] = target: T1, EGF receptor; test: Inhibition of EGFR autophosphorylation (A431 cell lysate, EGF stimulation); format: biochemical; parameters: EGF receptor in membranes of A431 cells; host or cells: membranes of A431 cells
# Method: Inhibition of EGFR Autophosphorylation
# A431 cells were grown to confluence on human fibronectin coated tissue culture dishes. After washing 2 times with ice-cold PBS, cells were lysed by the addition of 500 μl/dish of lysis buffer (50 mmol Hepes, pH 7.5, 150 mmol NaCl, 1.5 mmol Mg Cl2, 1 mmol EGTA, 10% glycerol, 1% triton X-100, 1 mmol PMSF, 1 mg/ml aprotinin, I mg/ml leupeptin) and incubating 5 minutes at 4° C. After EGF stimulation ([…] 10 minutes at 37° C.) immunoprecipitation was performed with anti EGF-R (Ab 108) and the autophosphorylation reaction (50 μl aliquots, 3 μCi [γ-^32 P]ATP) sample was carried out in the presence of 2 or 10 μM of compound, for 2 minutes at 4° C. The reaction was stopped by adding hot electrophoresis sample buffer. SDS-PAGE analysis (7.5% els) was followed by autoradiography and the reaction was quantitated by densitometry scanning of the x-ray films. In order to test the compounds for selective inhibition, the procedure is repeated using PDGF stimulation in place of EGF stimulation.
# [4] = test system: cyclic adenosine 3',5'-monophosphate (cAMP)-dependent protein kinase; settings: in words; compared with EGF receptor autophosphorylation; cited from earlier work
# EGF receptor [5] = target: T1, EGF receptor; parameters: EGF receptor in membranes of A431 cells; host or cells: membranes of A431 cells; settings: cited from earlier work
# other protein kinases = settings: PTK inhibitors which compete with ATP; cited from earlier work
# [6] = as a result of inhibiting other protein kinases; cited from earlier work
smiles,measurement,setting,value
"Nc1ncnc2c1ncn2[C@@H]1O[C@H](COP(=O)(O)OP(=O)(O)OP(=O)(O)O)[C@@H](O)[C@H]1O [ATP, adenosine triphosphate]",Km,EGF receptor [1],7.2 µM
same,Km,[2]; read-out: Km for ATP in the poly(GAT) assay,2.9 µM
"N#CC(C#N)=Cc1c[nH]cn1 [Example 3, 4-Imidazolidene malononitrile]",IC50,[2],2600 µM
"N#CC(C#N)=Cc1ccc2[nH]ccc2c1 [Example 5, 5-Indolidene malononitrile]",IC50,[2],2200 µM
"N#CC(=Cc1ccc2c(c1)OCO2)c1ccccn1 [Example 8, 2-(2-pyridyl)-3-[3,4-(methylenedioxy)phenyl]-2-propenenitrile]",IC50,EGF receptor [3],1 µM
O=CN/C=C/c1cc(O)ccc1O [erbstatin],concentration required to inhibit cAMP-dependent protein kinase,[4],much higher concentrations
same,concentration required to inhibit EGF receptor autophosphorylation,"EGF receptor [5]; in words, compared with cAMP-dependent protein kinase",Low concentrations
same,inhibition of EGF receptor autophosphorylation,EGF receptor [5]; membranes of A431 cells,inhibits the autophosphorylation of the EGF receptor
O=c1c(-c2ccc(O)cc2)coc2cc(O)cc(O)c12 [genistein],inhibition of other protein kinases,other protein kinases,inhibit other protein kinases
same,cytotoxicity,[6],highly cytotoxic
O=c1c(O)c(-c2ccc(O)c(O)c2)oc2cc(O)cc(O)c12 [quercetin],inhibition of other protein kinases,other protein kinases,inhibit other protein kinases
same,cytotoxicity,[6],highly cytotoxic
